From PubChem BioAssay AID743394 (Broad Institute, 2014)
The source made the active and inactive calls.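 How the source made its calls: active means 40% activation versus positive control reached by fitted dose-response curve at or below highest valid tested dose; inconclusive means poor fit quality, or flat fit with activation between 30% and 70%; inactive means the rest.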

Assay: Xi-linked GFP reactivating small molecules – imaging, 68-5-11 mouse fibroblasts, cherry-pick, dose response (AID 743394);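 further: sensitizer 5-aza-dC present in the wells at 0.5 mM final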
Settings: 68-5-11 mouse fibroblast XiGFP reporter, % GFP-positive imaging, 3 d; at 19.5 µM (top of the series)
For `COCCCn1c(N)c(C(=O)Nc2ccccc2)c2nc3ccccc3nc21`, the activation was -0.127% (inactive).

Same assay, conditions: 68-5-11 mouse fibroblast XiGFP reporter, % GFP-positive imaging, 3 d; at 19.5 µM (top of the series); cells co-treated with 5-aza-dC sensitizer; scaled: neutral wells 0, ellipticine wells 100
With `COc1ccc(NS(=O)(=O)c2ccc(NC(C)=O)cc2)nn1` the activation was 0.042% (inactive).
With `CCCNC(=O)N1CC2(CN(S(C)(=O)=O)C2)c2c(n(C)c3cc(OC)ccc23)[C@H]1CO` the activation was 0.016% (inactive).
With `CC1C=NC(S(=O)(=O)N2CC[C@@H]3[C@@H](CO)N(C)c4ccc(-c5ccccc5)cc4[C@@H]32)=N1` (some centres undefined) the activation was 0.053% (inactive).
For `Cn1c(=O)c2[nH]c(-c3ccc(S(=O)(=O)O)cc3)nc2n(C)c1=O`, the activation was 0.001% (inactive).
In the case of `CC(=O)NC(c1ccc(Cl)cc1)c1c(O)ccc2ccc(O)cc12` (centres undefined), the activation was 0.013% (inactive).
For `CNc1ccc([N+](=O)[O-])cc1C(=O)O`, the activation was 0.697% (inactive).
For `COc1ccc(-c2ccc(C3[C@@H]4CN(S(=O)(=O)c5ccccc5C)C[C@H]3N4)cc2)cc1` (some centres undefined), the activation was 0% (inactive).
In the case of `Cc1ccc(S(=O)(=O)N(C)c2ccc(C)c([N+](=O)[O-])c2)cc1`, the activation was 0.488% (inactive).
In the case of `CC(=O)Nc1ccc(S(=O)(=O)N(C)c2ccc(OCC(=O)NCCc3ccccc3F)cc2)cc1`, the activation was -0.07% (inactive).
In the case of `CC(C)NC(=O)N(C)C[C@@H]1OCCCC[C@H](C)Oc2ccc(NC(=O)Nc3ccc(C(F)(F)F)cc3)cc2C(=O)N([C@H](C)CO)C[C@@H]1C`, the activation was 0.005% (inactive).
With `C[C@@H]1CN([C@@H](C)CO)C(=O)c2cc(NS(=O)(=O)c3cn(C)cn3)ccc2O[C@@H](C)CCCCO[C@H]1CN(C)C(=O)c1ccccc1` the activation was 0.016% (inactive).
For `O=C(COC(=O)/C=C/c1cccc(C(F)(F)F)c1)NC(=O)NCc1ccco1`, the activation was -0.07% (inactive).
In the case of `Cc1ncsc1C(=O)Nc1cccc(C(F)(F)F)c1`, the activation was -0.075% (inactive).
In the case of `O=C1CCCC(O)=C1Sc1cc(Cl)c(Cl)cc1Cl`, the activation was 0.118% (inactive).
In the case of `Cc1ccsc1C1Nc2ccccc2-c2nc3ccccc3n21` (centres undefined), the activation was -0.047% (inactive).
With `COc1ccccc1NC(=O)N[C@H]1C=C[C@@H](CC(=O)N[C@@H](C)c2ccccc2)O[C@@H]1CO` the activation was -0.011% (inactive).
For `COc1ccc(N2C(=O)C3CCCN3C2c2cccc(OC)c2)cc1` (centres undefined), the activation was 0.02% (inactive).
For `O=C(Nc1cccc(S(=O)(=O)NC2=NCCC2)c1)C1CC(=O)N(c2ccc3c(c2)OCCO3)C1` (centres undefined), the activation was 0.339% (inactive).
For `Cc1ccc(-c2csc(NC(=O)c3cccc([N+](=O)[O-])c3C(=O)O)n2)cc1`, the activation was -0.047% (inactive).
In the case of `CCOC(=O)N1CCN(C(=O)Cn2ccc3c(OC)cccc3c2=O)CC1`, the activation was 0.07% (inactive).
In the case of `Cc1ccc(NC(=O)COc2ccc(-c3nnco3)cc2)cc1S(=O)(=O)N1CCOCC1`, the activation was -0.044% (inactive).
In the case of `COc1ccccc1OCCOc1ccc(/C=C2\C(=N)N3N=C(S(C)(=O)=O)SC3=NC2=O)cc1`, the activation was 0.042% (inactive).
For `Oc1c(C(c2ccccc2Cl)N2CCCC2)ccc2cccnc12` (centres undefined), the activation was -0.035% (inactive).
In the case of `COc1ccc2c3c(n(C)c2c1)[C@@H](CO)N(Cc1ccccc1OC)CC31CCN(C)CC1`, the activation was 0.213% (inactive).
In the case of `CC(C)OC(=O)/C(=C\c1cccnc1)NC(=O)c1ccccc1`, the activation was -0.024% (inactive).
With `CSc1ccc(CNCC2CCCO2)cc1` (centres undefined) the activation was 0.842% (inactive).
With `CCOC(=O)Cc1c(C)[nH]n(-c2ccccc2)c1=O` the activation was 0.085% (inactive).
For `CCOC(=O)Nc1ccc2nc(-c3cscn3)[nH]c2c1`, the activation was 0.097% (inactive).
In the case of `COC(=O)c1ccc(NC(=O)c2nc(S(=O)(=O)Cc3cccc(C)c3)ncc2Cl)cc1`, the activation was -0.008% (inactive).
For `COc1ccc(CCCc2nc3ccccc3[nH]2)cc1`, the activation was -0.001% (inactive).
In the case of `Nc1cc2c3c(cccc3c1)C(=O)N(CCN1CCCC1)C2=O`, the activation was -0.037% (inactive).
For `Cc1cccc2sc(N(CCCN(C)C)C(=O)CN3C(=O)c4ccccc4C3=O)nc12`, the activation was -0.047% (inactive).
With `COc1ccc(S(=O)(=O)Nc2cccc3c2O[C@H](CN(C)S(=O)(=O)c2cn(C)cn2)[C@H](C)CN([C@H](C)CO)C3=O)cc1` the activation was -0.035% (inactive).
For `O=C1c2ccccc2C(=Cc2cccnc2)c2ccccc21`, the activation was 0.325% (inactive).
With `C[C@@H]1CN([C@H](C)CO)C(=O)c2cc(NS(=O)(=O)c3ccc(F)cc3)ccc2O[C@@H](C)CCCCO[C@@H]1CN(C)Cc1ccc2c(c1)OCO2` the activation was 9.16% (inactive).
With `Cc1nn(-c2ccccc2)c(C)c1N` the activation was 0.313% (inactive).
In the case of `CC(=Nc1ccc(Cl)cc1N)c1c(O)cc(C)oc1=O`, the activation was -0.044% (inactive).
In the case of `Cc1ccc(S(=O)(=O)Nc2ccc3c(c2)C(=O)N([C@@H](C)CO)C[C@@H](C)[C@@H](CN(C)Cc2ccc(C(=O)Nc4ccccc4N)cc2)O3)cc1`, the activation was 1.51% (inactive).
In the case of `Cc1ccc(S(=O)(=O)N(C)C[C@H]2Oc3ccc(NC(=O)Nc4ccccc4)cc3CC(=O)N([C@H](C)CO)C[C@@H]2C)cc1`, the activation was -0.035% (inactive).
For `COc1cc(NC(C)CCc2ccccc2)cc(OC)c1OC` (centres undefined), the activation was -0.035% (inactive).
With `O=c1c2cc(-c3ccccc3)sc2nc2n1N=C(c1ccccc1)CS2` the activation was 1.54% (inactive).
With `CC(C)N1C(=O)C(=O)N(CC(=O)N2CCc3ccccc32)C1=O` the activation was -0.031% (inactive).
For `CC(=O)Nc1ccc(NS(=O)(=O)c2ccc3c(c2)oc(=O)n3C)cc1`, the activation was 5.23% (inactive).
For `CCOc1ccccc1N1C(=O)CC(Sc2nccc(C)n2)C1=O` (centres undefined), the activation was -0.095% (inactive).
For `COc1ccc(S(=O)(=O)N(C)C[C@H]2Oc3ccc(NS(=O)(=O)c4ccc(F)cc4)cc3CC(=O)N([C@@H](C)CO)C[C@@H]2C)cc1`, the activation was 0.034% (inactive).
For `O=C1c2ccccc2C(=O)C1c1ccccc1`, the activation was -0.024% (inactive).
In the case of `COC1=CC(=O)c2nc(Cl)ccc2C1=O`, the activation was 5.06% (inactive).
With `CC(C)(C)N(Cc1ccccc1)C(=O)COC(=O)c1ccc(N2CCCC2=O)cc1` the activation was 0.165% (inactive).
For `C/C=C/Cn1c(SCCCc2ccccc2)nc2c1c(=O)[nH]c(=O)n2C`, the activation was -0.024% (inactive).
In the case of `COc1ccccc1CN1CC[C@H]2[C@H](CO)Nc3ccc(C#Cc4ccccc4)cc3[C@H]21`, the activation was 0% (inactive).
In the case of `O=C(c1ccc(Br)cc1)c1cc([N+](=O)[O-])ccc1N1CCOCC1`, the activation was 4.21% (inactive).
For `O=C(N/N=C\c1c(O)ccc2ccccc12)c1ccc(S(=O)(=O)N2CCCCC2)cc1`, the activation was 12.4% (inactive).
In the case of `CNC(=O)C[C@H]1C(=O)N(c2ccccc2)C[C@@H]1C`, the activation was 0.464% (inactive).
With `Oc1ccc(Cl)cc1C=Nc1ccc2c3c(cccc13)CC2` the activation was 0.039% (inactive).
For `COCCN(C(=O)c1ccc2c(c1)C(=O)N(c1ccccc1Cl)C2=O)c1c(N)n(CC(C)C)c(=O)[nH]c1=O`, the activation was 0.738% (inactive).
In the case of `Cc1noc(C)c1S(=O)(=O)Nc1ccc2c(c1)C(=O)N([C@H](C)CO)C[C@H](C)[C@H](CN(C)C(=O)Nc1ccc(F)cc1)OCCCC[C@H](C)O2`, the activation was 0.022% (inactive).
For `O=C(COC(=O)COc1cccc(C(F)(F)F)c1)NC1CCS(=O)(=O)C1` (centres undefined), the activation was -0.034% (inactive).
For `Cc1cc(N)ncc1[N+](=O)[O-]`, the activation was 0.508% (inactive).
In the case of `COc1ccccc1C(=O)Nc1nnc(S(=O)(=O)N2CCCCCC2)s1`, the activation was 0.014% (inactive).
For `CC(=O)c1ccc2c(c1)OCCOCCOCCOCCOCCO2`, the activation was -0.021% (inactive).
With `COc1ccc(-c2ccc(C#N)c(SCC(=O)NCc3ccco3)n2)cc1OC` the activation was 2.59% (inactive).
With `COc1cc(CNc2nc3ccccc3n2C)cc(OC)c1OC` the activation was 0.013% (inactive).
For `Cc1cc(C(=O)NCc2cc(F)cc3c2OCOC3)nn1C`, the activation was -0.037% (inactive).
For `Nc1c(C(=O)O)cnn1-c1ccc([N+](=O)[O-])cc1`, the activation was 0.022% (inactive).
For `COc1ccc(-c2nn(-c3ccccc3)cc2C(=O)NC(=S)Nc2cc(Cl)ccc2Cl)cc1`, the activation was 3.67% (inactive).
With `CC(C)OC(=O)CC(=O)CSc1nc(-c2ccc(F)cc2)cc(-c2ccccc2)c1C#N` the activation was 0.769% (inactive).
For `Cc1ccc(S(=O)(=O)c2ccc([N+](=O)[O-])cn2)cc1`, the activation was -0.05% (inactive).
For `C/C(=N\NC(=O)c1ccccc1Cl)c1ccccn1`, the activation was 3.5% (inactive).
With `Cc1occc1C(=O)N/N=C/C(Br)=C\c1ccccc1` the activation was -0.024% (inactive).
For `Brc1cccc(CNCC2CCCO2)c1` (centres undefined), the activation was 0.116% (inactive).
For `Cc1ccc(/C=C/C(=O)N2CCN(S(=O)(=O)/C=C/c3ccccc3)CC2)o1`, the activation was 0.382% (inactive).
For `Cc1ccsc1/C=N/n1c(-c2cc(-c3ccccc3)n[nH]2)n[nH]c1=S`, the activation was 0.001% (inactive).
For `CC(=O)Nc1sc(N/N=C/c2ccc(N(C)C)cc2)nc1-c1ccc(C)cc1`, the activation was 0.052% (inactive).
For `O=C(O)c1ccccc1CSc1nc2ccccc2n1Cc1ccccc1C(=O)O`, the activation was 0.715% (inactive).
With `CC(C)(C)NC(=O)C(c1c[nH]c2ccccc12)N(C(=O)Cn1nnc(-c2ccc(Cl)cc2)n1)c1ccccc1F` (centres undefined) the activation was 0.104% (inactive).
For `CC(OCCN(C)C)C(=O)C12CC3CC(CC(C3)C1)C2` (centres undefined), the activation was 0.008% (inactive).
In the case of `C[C@@H]1C[C@H]2[C@@H]3CCC4=CC(=O)C=C[C@]4(C)[C@@]3(F)[C@@H](O)C[C@]2(C)[C@H]1C(=O)CO`, the activation was 0.179% (inactive).
For `c1ccc(CCNc2nc(-c3ccccn3)nc3ccccc23)cc1`, the activation was -0.035% (inactive).
In the case of `Cc1ccc(N(C)C(=O)C2CCN(S(=O)(=O)c3ccc4c(c3)oc(=O)n4C)CC2)cc1`, the activation was 0.016% (inactive).
For `Cc1ccc(S(=O)(=O)Nc2ccc3c(c2)C(=O)N([C@H](C)CO)C[C@@H](C)[C@@H](CN(C)Cc2ccc(Cl)c(Cl)c2)OCCCC[C@H](C)O3)cc1`, the activation was -0.031% (inactive).
For `CC(C)N1CCc2c(sc(NC(=O)c3cc4cc([N+](=O)[O-])ccc4s3)c2C(N)=O)C1`, the activation was 7.43% (inactive).
In the case of `Cc1cccc(-c2ccc([C@H]3[C@H](CO)N4CCCCN(C(=O)NC(C)C)C[C@@H]34)cc2)c1`, the activation was 0.105% (inactive).

Same assay, conditions: 68-5-11 mouse fibroblast XiGFP reporter, % GFP-positive imaging, 3 d; at 21 µM (top of the series); cells co-treated with 5-aza-dC sensitizer; scaled: neutral wells 0, ellipticine wells 100
With `Cc1ccc(-c2ccccc2[C@@H]2[C@H](C#N)N(S(C)(=O)=O)[C@H]2CO)cc1` the activation was 0.241% (inactive).
